Assay results from patent US20140221361A1, “C-19 MODIFIED TRITERPENOIDS WITH HIV MATURATION INHIBITORY ACTIVITY” (priority 2013, published 2014).

Test system: recombinant NL4-3 virus (Renilla luciferase in nef, Gag P373S)
Assay: HIV cell culture assay (luciferase reporter, MT-2 cells)
Type: cell-based, HIV-1
Settings: MT-2 cells infected for 4-5 days with NLRluc recombinants; luciferase activity; serial dilutions of inhibitor
Method: MT-2 cells and 293T cells were obtained from the NIH AIDS Research and Reference Reagent Program. MT-2 cells were propagated in RPMI 1640 media supplemented with 10% heat inactivated fetal bovine serum, […]. The 293T cells were propagated in DMEM media supplemented with 10% heat inactivated fetal bovine serum (FBS), 100 units/ml penicillin G and 100 µg/ml streptomycin. The proviral DNA clone of NL4-3 was obtained from the NIH AIDS Research and Reference Reagent Program. A recombinant NL4-3 virus, in which a section of the nef gene from NL4-3 was replaced with the Renilla luciferase gene, was used as a reference virus. In addition, residue Gag P373 was converted to P373S. Briefly, the recombinant virus was prepared by transfection of the altered proviral clone of NL4-3. Transfections were performed in 293T cells using LipofectAMINE PLUS from Invitrogen (Carlsbad, Calif.), according to manufacturer's instruction. The virus was titered in MT-2 cells using luciferase enzyme activity as a marker. Luciferase was quantitated using the Dual Luciferase kit from Promega (Madison, Wis.), with modifications to the manufacturer's protocol. The diluted Passive Lysis solution was pre-mixed with the re-suspended Luciferase Assay Reagent and the re-suspended Stop & Glo Substrate (2:1:1 ratio). Fifty (50) μL of the mixture was added to each aspirated well on assay plates and luciferase activity was measured immediately on a Wallac TriLux (Perkin-Elmer). Antiviral activities of inhibitors toward the recombinant virus were quantified by measuring luciferase activity in cells infected for 4-5 days with NLRluc recombinants in the presence serial dilutions of the inhibitor.

SMILES	EC50
CC(C(=O)O)[C@@H]1CC[C@]2(NCCN3CCS(=O)(=O)CC3)CC[C@]3(C)[C@H](CC[C@@H]4[C@@]5(C)CC=C(c6ccc(C(=O)O)c(F)c6)C(C)(C)[C@@H]5CC[C@]43C)[C@@H]12 (stereo partly drawn) [Example A6, 4-((1R,3aS,5aR,5bR,7aR,11aS,11bR,13aR,13bR)-1-(1-carboxyethyl)-3a-((2-(1,1-dioxidothiomorpholino)ethyl)amino)-5a,5b,8,8,11a-pentamethyl-2,3,3a,4,5,5a,5b,6,7,7a,8,11,11a,11b,12,13,13a,13b-octadecahydro-1H-cyclopenta[a]chrysen-9-yl)-2-fluorobenzoic acid]	390 nM
CC(C(=O)O)[C@@H]1CC[C@]2(NCCN3CCS(=O)(=O)CC3)CC[C@]3(C)[C@H](CC[C@@H]4[C@@]5(C)CC=C(c6ccc(C(=O)O)c(F)c6)C(C)(C)[C@@H]5CC[C@]43C)[C@@H]12 (stereo partly drawn) [Example A7, 4-((1R,3aS,5aR,5bR,7aR,11aS,11bR,13aR,13bR)-1-(1-carboxyethyl)-3a-((2-(1,1-dioxidothiomorpholino)ethyl)amino)-5a,5b,8,8,11a-pentamethyl-2,3,3a,4,5,5a,5b,6,7,7a,8,11,11a,11b,12,13,13a,13b-octadecahydro-1H-cyclopenta[a]chrysen-9-yl)-2-fluorobenzoic acid]	110 nM

Same assay, conditions: Renilla, NL43, MT-2 cells infected for 4-5 days with NLRluc recombinants; luciferase activity; serial dilutions of inhibitor

SMILES	EC50
C=C(COCCN1CCOCC1)[C@@H]1CC[C@]2(C(=O)NCCNCC(=O)O)CC[C@]3(C)[C@H](CC[C@@H]4[C@@]5(C)CC=C(c6ccc(C(=O)O)cc6)C(C)(C)[C@@H]5CC[C@]43C)[C@@H]12 [Example 17, 4-((1R,3aS,5aR,5bR,7aR,11aS,11bR,13aR,13bS)-3a-(2-(carboxymethylamino)ethylcarbamoyl)-5a,5b,8,8,11a-pentamethyl-1-(3-(2-morpholinoethoxy)prop-1-en-2-yl)-2,3,3a,4,5,5a,5b,6,7,7a,8,11,11a,11b,12,13,13a,13b-octadecahydro-1H-cyclopenta[a]chrysen-9-yl)benzoic acid]	80 nM
C=C(CN(C)C(=O)CCC(=O)OC)[C@@H]1CC[C@]2(C(=O)NCCN(C)C)CC[C@]3(C)[C@H](CC[C@@H]4[C@@]5(C)CC=C(c6ccc(C(=O)O)cc6)C(C)(C)[C@@H]5CC[C@]43C)[C@@H]12 [Example 18, 4-((1R,3aS,5aR,5bR,7aR,11aS,11bR,13aR,13bS)-3a-(2-(dimethylamino)ethylcarbamoyl)-1-(3-(4-methoxy-N-methyl-4-oxobutanamido)prop-1-en-2-yl)-5a,5b,8,8,11a-pentamethyl-2,3,3a,4,5,5a,5b,6,7,7a,8,11,11a,11b,12,13,13a,13b-octadecahydro-1H-cyclopenta[a]chrysen-9-yl)benzoic acid]	1.87 nM
CC(=CC(=O)O)[C@@H]1CC[C@]2(C(=O)NCCN(C)C)CC[C@]3(C)[C@H](CC[C@@H]4[C@@]5(C)CC[C@H](c6ccc(C(=O)O)cc6)C(C)(C)[C@@H]5CC[C@]43C)[C@@H]12 [Example 19, 4-((1R,3aS,5aR,5bR,7aS,9S,11aS,11bR,13aR,13bR)-1-(1-carboxyprop-1-en-2-yl)-3a-((2-(dimethylamino)ethyl)carbamoyl)-5a,5b,8,8,11a-pentamethylicosahydro-1H-cyclopenta[a]chrysen-9-yl)benzoic acid]	20 nM
CC(C)(O)[C@@H]1CC[C@]2(NCCN3CCS(=O)(=O)CC3)CC[C@]3(C)[C@H](CC[C@@H]4[C@@]5(C)CC=C(C6=CCC(C(=O)O)CC6)C(C)(C)[C@@H]5CC[C@]43C)[C@@H]12 (stereo partly drawn) [Example 22, 4-((1R,3aS,5aR,5bR,7aR,11aS,11bR,13aR,13bS)-3a-((2-(1,1-dioxidothiomorpholino)ethyl)amino)-1-(2-hydroxypropan-2-yl)-5a,5b,8,8,11a-pentamethyl-2,3,3a,4,5,5a,5b,6,7,7a,8,11,11a,11b,12,13,13a,13b-octadecahydro-1H-cyclopenta[a]chrysen-9-yl)cyclohex-3-enecarboxylic acid]	0.519 nM
CC(C)(O)[C@@H]1CC[C@]2(NCCN3CC4CC3CO4)CC[C@]3(C)[C@H](CC[C@@H]4[C@@]5(C)CC=C(C6=CCC(C(=O)O)CC6)C(C)(C)[C@@H]5CC[C@]43C)[C@@H]12 (stereo partly drawn) [Example 23, 4-((1R,3aS,5aR,5bR,7aR,11aS,11bR,13aR,13bS)-3a-((2-(2-oxa-5-azabicyclo[2.2.1]heptan-5-yl)ethyl)amino)-1-(2-hydroxypropan-2-yl)-5a,5b,8,8,11a-pentamethyl-2,3,3a,4,5,5a,5b,6,7,7a,8,11,11a,11b,12,13,13a,13b-octadecahydro-1H-cyclopenta[a]chrysen-9-yl)cyclohex-3-enecarboxylic acid]	0.779 nM
C=C(CO)[C@@H]1CC[C@]2(NC(=O)OC(C)(C)C)CC[C@]3(C)[C@H](CC[C@@H]4[C@@]5(C)CC=C(c6ccc(C(=O)O)c(F)c6)C(C)(C)[C@@H]5CC[C@]43C)[C@@H]12 [Example A1, 4-((1R,3aS,5aR,5bR,7aR,11aS,11bR,13aR,13bS)-3a-((tert-butoxycarbonyl)amino)-1-(3-hydroxyprop-1-en-2-yl)-5a,5b,8,8,11a-pentamethyl-2,3,3a,4,5,5a,5b,6,7,7a,8,11,11a,11b,12,13,13a,13b-octadecahydro-1H-cyclopenta[a]chrysen-9-yl)-2-fluorobenzoic acid]	20 nM
C=C(CO)[C@@H]1CC[C@]2(N)CC[C@]3(C)[C@H](CC[C@@H]4[C@@]5(C)CC=C(c6ccc(C(=O)O)c(F)c6)C(C)(C)[C@@H]5CC[C@]43C)[C@@H]12 [Example A2]	10 nM
CC1([C@@H]2CC[C@]3(NCCN4CCS(=O)(=O)CC4)CC[C@]4(C)[C@H](CC[C@@H]5[C@@]6(C)CC=C(c7ccc(C(=O)O)c(F)c7)C(C)(C)[C@@H]6CC[C@]54C)[C@@H]23)CO1 (stereo partly drawn) [Example A3, 4-((1R,3aS,5aR,5bR,7aR,11aS,11bR,13aR,13bS)-3a-((2-(1,1-dioxidothiomorpholino)ethyl)amino)-5a,5b,8,8,11a-pentamethyl-1-(2-methyloxiran-2-yl)-2,3,3a,4,5,5a,5b,6,7,7a,8,11,11a,11b,12,13,13a,13b-octadecahydro-1H-cyclopenta[a]chrysen-9-yl)-2-fluorobenzoic acid]	10 nM
CC(C)(C)OC(=O)N[C@@H]1CC[C@]2(C(=O)O)CC[C@]3(C)[C@H](CC[C@@H]4[C@@]5(C)CC=C(C6=CCC(C(=O)O)CC6)C(C)(C)[C@@H]5CC[C@]43C)[C@@H]12 (stereo partly drawn) [Example A8, (1R,3aR,5aR,5bR,7aR,11aS,11bR,13aR,13bR)-1-((tert-butoxycarbonyl)amino)-9-(4-carboxycyclohex-1-en-1-yl)-5a,5b,8,8,11a-pentamethyl-2,3,3a,4,5,5a,5b,6,7,7a,8,11,11a,11b,12,13,13a,13b-octadecahydro-1H-cyclopenta[a]chrysene-3a-carboxylic acid]	6.56 nM
CN(C)CCNC(=O)[C@]12CC[C@@H](NC(=O)OC(C)(C)C)[C@@H]1[C@H]1CC[C@@H]3[C@@]4(C)CC=C(C5=CCC(C(=O)O)CC5)C(C)(C)[C@@H]4CC[C@@]3(C)[C@]1(C)CC2 (stereo partly drawn) [Example A9, 4-((1R,3aR,5aR,5bR,7aR,11aS,11bR,13aR,13bR)-1-((tert-butoxycarbonyl)amino)-3a-((2-(dimethylamino)ethyl)carbamoyl)-5a,5b,8,8,11a-pentamethyl-2,3,3a,4,5,5a,5b,6,7,7a,8,11,11a,11b,12,13,13a,13b-octadecahydro-1H-cyclopenta[a]chrysen-9-yl)cyclohex-3-enecarboxylic acid]	1.15 nM
CC(C)(O)[C@@H]1CC[C@]2(NCCN3CCS(=O)(=O)CC3)CC[C@]3(C)[C@H](CC[C@@H]4[C@@]5(C)CC=C(c6ccc(C(=O)O)cc6)C(C)(C)[C@@H]5CC[C@]43C)[C@@H]12 [Example B3, 4-((1R,3aS,5aR,5bR,7aR,11aS,11bR,13aR,13bS)-3a-((2-(1,1-dioxidothiomorpholino)ethyl)amino)-1-(2-hydroxypropan-2-yl)-5a,5b,8,8,11a-pentamethyl-2,3,3a,4,5,5a,5b,6,7,7a,8,11,11a,11b,12,13,13a,13b-octadecahydro-1H-cyclopenta[a]chrysen-9-yl)benzoic acid]	1.3 nM
COC(C)(C)[C@@H]1CC[C@]2(NCCN3CCS(=O)(=O)CC3)CC[C@]3(C)[C@H](CC[C@@H]4[C@@]5(C)CC=C(c6ccc(C(=O)O)cc6)C(C)(C)[C@@H]5CC[C@]43C)[C@@H]12 [Example B4, 4-((1R,3aS,5aR,5bR,7aR,11aS,11bR,13aR,13bS)-3a-((2-(1,1-dioxidothiomorpholino)ethyl)amino)-1-(2-methoxypropan-2-yl)-5a,5b,8,8,11a-pentamethyl-2,3,3a,4,5,5a,5b,6,7,7a,8,11,11a,11b,12,13,13a,13b-octadecahydro-1H-cyclopenta[a]chrysen-9-yl)benzoic acid]	2.06 nM
